In brackets after ≈: the same amount, converted by molar mass.
Key:
Type in all cases: cell-based
A-431 = test: Growth inhibition of cultured human tumor cell lines in microtiter plates, MTT assay; conditions: A-431, Epidermoid carcinoma, 5 days; for IC50: Homo sapiens, 120 h, read-out: Antiproliferative activity IC50
Experimental: (§1) For the detailed evaluation of their biological profile as anti-cancer agents, cultured human tumor cell lines were treated with the new ansamitocin derivatives. In particular, the 19-fluoro-20-demethoxyansamitocin P3 (F-A), 19-chloro-20-demethoxyansamitocin P3 (Cl-A), 19-bromo-20-demethoxyansamitocin P3 (Br-A), and the 20-demethoxy-19-vinylansamitocin P3 (VI) were tested for their inhibitory effect on cell growth of different cell lines, namely KB-3-1, U-937, PC-3, SK-OV-3, A-498, A-431, and A-549, in comparison to natural biosynthesis product Ansamitocin P-3 (AP-3). Growth inhibition was measured in microtiter plates. 60 µl of serial dilutions of the test compounds were added to aliquots of 120 µl of the suspended cells (50000/ml). After 5 days the growth was determined using a MTT assay, except for U-937, where the WST-1 assay from Roche was employed.

A-498 = test: as above; conditions: A-498, Kidney carcinoma, 5 days; for IC50: Homo sapiens, A498, 120 h, read-out: Antiproliferative activity IC50
Experimental: as §1

A-549 = test: as above; conditions: A-549, Lung carcinoma, 5 days; for IC50: Homo sapiens, A549, 120 h, read-out: Antiproliferative activity IC50
Experimental: as §1

KB-3-1 = test: as above; conditions: KB-3-1, Cervix carcinoma, 5 days; for IC50: Homo sapiens, 120 h, read-out: Antiproliferative activity IC50
Experimental: as §1

PC-3 = test: as above; conditions: PC-3, Prostate carcinoma, 5 days; for IC50: Homo sapiens, 120 h, read-out: Antiproliferative activity IC50
Experimental: as §1

SK-OV-3 = test: as above; conditions: SK-OV-3, Ovarian carcinoma, 5 days; for IC50: Homo sapiens, 120 h, read-out: Antiproliferative activity IC50
Experimental: as §1

U-937 = test: Growth inhibition of cultured human tumor cell lines in microtiter plates, WST-1 assay; conditions: U-937, Lymphoma, 5 days; for IC50: Homo sapiens, 120 h, read-out: Antiproliferative activity IC50
Experimental: as §1

[1] = system: cultured human tumor cell lines; test: Growth inhibition, statements across the whole panel of cell lines; conditions: for activity among the compounds tested: in general, across the cell lines, result in words
Experimental: as §1

Row | Compound | IC50 (A-431) | IC50 (A-498) | IC50 (A-549) | IC50 (KB-3-1) | IC50 (PC-3) | IC50 (SK-OV-3) | IC50 (U-937) | activity among the compounds tested [1] | also measured
1 | CO[C@@H]1/C=C/C=C(\C)Cc2ccc(Cl)c(c2)N(C)C(=O)C[C@H](OC(=O)C(C)C)[C@]2(C)O[C@H]2[C@H](C)[C@@H]2C[C@@]1(O)NC(=O)O2 [Cl-A, 19-chloro-20-demethoxyansamitocin P3] | 0.15 ng/mL (≈ 0.248 nM) | 3 ng/mL (≈ 4.96 nM) | 0.4 ng/mL (≈ 0.661 nM) | 0.35 ng/mL (≈ 0.578 nM) | 0.12 ng/mL (≈ 0.198 nM) | 0.1 ng/mL (≈ 0.165 nM) | 0.035 ng/mL (≈ 0.0578 nM) | – | activities weaker than that of the natural AP-3 [1]: 3-50 times
2 | COc1cc2cc(c1Cl)N(C)C(=O)C[C@H](OC(=O)C(C)C)[C@]1(C)O[C@H]1[C@H](C)[C@@H]1C[C@@](O)(NC(=O)O1)[C@H](OC)/C=C/C=C(\C)C2 [AP-3, Ansamitocin P-3, reference compound] | 0.05 ng/mL (≈ 0.0787 nM) | 1.1 ng/mL (≈ 1.73 nM) | 0.1 ng/mL (≈ 0.157 nM) | 0.11 ng/mL (≈ 0.173 nM) | 0.035 ng/mL (≈ 0.0551 nM) | 0.03 ng/mL (≈ 0.0472 nM) | 0.0035 ng/mL (≈ 0.00551 nM) | – | –
3 | 19-fluoro-20-demethoxyansamitocin P3 [F-A] | – | – | – | – | – | – | – | most active | –
4 | 20-demethoxy-19-vinylansamitocin P3 | – | – | – | – | – | – | – | most active | –
5 | CO[C@@H]1/C=C/C=C(\C)Cc2ccc(F)c(c2)N(C)C(=O)C[C@H](OC(=O)C(C)C)[C@]2(C)O[C@H]2[C@H](C)[C@@H]2C[C@@]1(O)NC(=O)O2 [F-A, 19-fluoro-20-demethoxyansamitocin P3] | 0.04 ng/mL (≈ 0.0679 nM) | 2 ng/mL (≈ 3.4 nM) | 0.11 ng/mL (≈ 0.187 nM) | 0.18 ng/mL (≈ 0.306 nM) | 0.035 ng/mL (≈ 0.0595 nM) | 0.035 ng/mL (≈ 0.0595 nM) | 0.01 ng/mL (≈ 0.017 nM) | – | –
6 | CO[C@@H]1/C=C/C=C(\C)Cc2ccc(Br)c(c2)N(C)C(=O)C[C@H](OC(=O)C(C)C)[C@]2(C)O[C@H]2[C@H](C)[C@@H]2C[C@@]1(O)NC(=O)O2 [Br-A, 19-bromo-20-demethoxyansamitocin P3] | – | – | – | – | – | – | – | – | Antiproliferative activity IC50 (A-431): 0.1 ng/mL; Antiproliferative activity IC50 (A-498): 4 ng/mL; Antiproliferative activity IC50 (A-549): 0.3 ng/mL; Antiproliferative activity IC50 (KB-3-1): 0.3 ng/mL; Antiproliferative activity IC50 (PC-3): 0.1 ng/mL; Antiproliferative activity IC50 (SK-OV-3): 0.05 ng/mL; Antiproliferative activity IC50 (U-937): 0.03 ng/mL
